The results in this text go back to patent US9155784B2, “Anti-TNF-α therapy for the mucopolysaccharidoses and other lysosomal disorders” (Icahn School of Medicine at Mount Sinai, priority 2011, dated 2015).

Format in all cases: in vivo, rat
The test system of one assay is TNF-α. Description: TNF-α immunostaining of articular cartilage, MPS VI rats. Conditions: MPS VI rats treated 8 months, vs untreated. How it is done:
(§1) Femora from 37-week-old normal, untreated MPS VI and treated MPS VI rats were fixed, embedded, sectioned, and stained with toluidine blue and H & E. Immunohistochemical studies were performed as well. For immunohistochemistry, sections were fixed with 4% paraformaldehyde/PBS, permeabilized with 0.5% Triton-X-100, blocked, and incubated overnight at 4° C. with primary rabbit polyclonal anti-mouse collagen type IIA1 (rabbit polyclonal […], Santa Cruz Biotechnology) and TNF-α antibody (goat polyclonal sc-1348, Santa Cruz Biotechnology). After several rinses with PBS, visualization was accomplished using a fluorescent secondary antibody, donkey anti-goat IgG-Cy-3 (711-165-152, Jackson Laboratory). Nuclei were stained with 1 mg/ml bis-benzimide Hoechst dye (Sigma-Aldrich) for 10 min, rinsed, and sections were mounted with an anti-bleaching mounting media. Slides were visualized and photographed with a confocal laser-scanning microscope (Carl Zeiss 510 Meta).

Assay [1] has as its system MPS VI rats. Description: Femora and tibia length by microCT / caliper, MPS VI rats. Conditions: 37 weeks of age, vs untreated MPS VI. How it is done: (§2) Three-dimensional images of the 37-week-old femora from age-matched normal, untreated and treated MPS VI rats were obtained using the eXplore Locus SP PreClinical Specimen microCT system (GE Healthcare; London, Ontario, Canada). Scans were performed at a voxel size of 14.4 μm. The scan protocol consisted of 3600 image acquisitions over a five hour scan (acquisition parameters: 80 kVp, 80 uA, 3 second exposure time [˜690], 0.010″ aluminum beam filter). A calibration phantom containing air, water, and hydroxyapatite (SB3: Gamex RMI, Middleton, Wis., USA) was included in all scans to adjust for the variability in X-ray attenuation inherent to independent scan sessions.
(§3) Limb and trachea measurements were taken at the end of the study (37 weeks of age). The length of each femur was measured from the microCT images using the Microview software. The greater trochanter was used as the proximal margin of the femur, whereas the extent of the distal condyles was considered the distal margin. Thus, the length of each femur was computed roughly along the vertical axis of the bone. For validation, the physical femora and tibia lengths, as well as the width of the tracheas, was measured with a digital caliper. The mean of the two treatment groups (ERT and combined ERT/CNTO1081) were compared using standard student t test analysis.

The test system of assay [2] is MPS VI rats. Kind of assay: Synovium / knee joint histology, MPS VI rats. Particulars: MPS VI rats treated 8 months, knee cross sections. How it is done: as §1
FIG. 1A summarizes the serum levels of TNF-α and RANKL at the end of the study. Both inflammatory markers were highly elevated in untreated MPS VI rats as compared to normal animals, and both treatment protocols led to significant reductions. […] The synovial membranes (*) were hyperplastic in untreated MPS VI rats, leading to the formation of synovial villi (SV). […]

Assay [3] deals with MPS VI rats. Description: Gait (motility) analysis from paw prints, MPS VI rats. How it is done:
The fore and hind paws of treated and control animals were stained with two different colors using non-toxic dye. The rats were trained to walk through a tunnel for two consecutive days, leaving their paw prints on blotting paper. On the third day several parameters were measured; distance between the left and right front paws in the longitudinal direction, the angle that was formed, and the distance between the front and hind right paws. For statistical analysis, group differences were assessed using multivariate analyses of variance (MANOVAs), followed by post hoc Bonferroni adjustments for all time points tested.

Assay [4] has as its system MPS VI rats. Kind of assay: Trachea measurements and gross morphology, MPS VI rats. How it is done: as §3
The subject of assay [5] is MPS VI rats. Kind of assay: MicroCT analysis of bone micro-architecture (trabecular, cortical, robustness), MPS VI rats. Particulars: mid-diaphyseal femur, vs untreated; fell short of statistical significance. How it is done: as §2
A representative mid-diaphyseal region of each femoral microCT image was isolated for analysis. […] The analysis region was not restricted by measured size to accommodate variances in bone length. […] The MicroView software was employed to quantify morphological traits.
The microCT images were further processed to quantify the tissue mineral density (TMD) of cortical bone within each sample. […] TMD was calculated by converting the gray-scale values of bone voxels from Hounsfield units (HU) to mineral values (mg/cc of HA) through the use of a calibration phantom containing air, water, and HA (Gamex RMI, Middleton, Wis., USA). […]

Assay [6] deals with MPS VI rats. Description: Accelerating rotarod (locomotor function), MPS VI rats, ERT and combined treatment. Particulars: 10 RPM, maximum time 180 seconds; untreated MPS VI mean 70 seconds. From the text:
Age-matched 37-week-old normal and untreated MPS VI and treated MPS VI rats were placed on an accelerating Rotarod series 8 (IITC Life Science) for evaluation as described previously (Cotugno et al., “Different Serum Enzyme Levels are Required to Rescue the Various Systemic Features of the Mucopolysaccharidoses,” Hum. Gene Ther. 21:555-69 (2010), which is hereby incorporated by reference in its entirety). Animals were primed on the rod for two consecutive days prior to the actual recording. The rotarod was set at increasing speeds from 10 to 30 rpm over 3 minutes, and an average of the latency to fall off from the rod was recorded. Results were analyzed by one-way analysis of variance (ANOVA) with the variable group.

As to “recombinant human N-acetylgalactosamine-4-sulfatase [ERT]”, the “TNF-α immunostaining in the articular cartilage” value with TNF-α was “modestly reduced”. Besides, in the assay on MPS VI rats [1], the “increase in femora length” value is “No improvements were observed” and the “increase in tibia length” value is reported as “No improvement was observed”. In the assay with MPS VI rats [2], the “synovial inflammation and formation of villi” value is “did not reduce”. In addition, the “distance for the front paw per step” value in the assay on MPS VI rats [3] (untreated MPS VI 2.8 cm) is listed as 4.2 cm. In the assay with MPS VI rats [3] (untreated MPS VI 4.9 cm), the “distance the animals moved their rear paws” value was “not changed”. Also, the “angle of the hind paw movement” value in the assay with MPS VI rats [3] (untreated MPS VI 60°) is recorded as 45 °. In the assay with MPS VI rats [4] (37 weeks of age), the “tracheal abnormalities (thickened, collapsed tracheas), gross inspection” value is recorded as “not altered”. The substance also yielded a trachea cross-sectional area with MPS VI rats [4] (37 weeks, untreated 2.9±0.6, normal 7.5±0.8) of 3.6±0.5 mm^2. Besides, in the assay with MPS VI rats [5], the “cortical area and relative cortical area” value is recorded as “greater”. The “time on the rotating bar” value with MPS VI rats [6] was determined as 180 s.
